Substitutions are numbered along the chain they refer to.
What was measured:
Format in all cases: binding
pig kidney FBPase WT = biological target: T1, pig kidney FBPase WT (Sus scrofa, UniProt P00636); assay: Differential scanning fluorimetry, WT enzyme; conditions: enzyme WT
T1 construct: His6 (C); made in house; host or cells: Escherichia coli BL21 (DE3)
T1 sequence (P00636 1-338): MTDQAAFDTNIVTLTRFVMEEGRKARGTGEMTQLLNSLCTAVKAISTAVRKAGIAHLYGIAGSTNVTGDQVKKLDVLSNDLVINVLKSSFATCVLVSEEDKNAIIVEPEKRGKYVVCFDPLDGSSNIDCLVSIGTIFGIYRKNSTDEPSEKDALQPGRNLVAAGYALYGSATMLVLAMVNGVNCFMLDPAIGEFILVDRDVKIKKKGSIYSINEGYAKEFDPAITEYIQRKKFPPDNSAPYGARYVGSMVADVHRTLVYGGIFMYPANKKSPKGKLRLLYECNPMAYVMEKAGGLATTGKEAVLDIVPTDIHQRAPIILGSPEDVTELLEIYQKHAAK
Description: (§1) Differential scanning fluorimetry (DSF) assays were designed and implemented to run on WT and each mutant for the purpose of determining relative stabilities by melting point, and to detect structural changes in the enzymes upon ligand binding. Thermal shift assays were performed with a Light Cycler 96 System Real-Time PCR machine (Roche) using Sypro-Orange dye (Invitrogen) and thermal ramping (0.25°C per min between 20 and 85°C). […] Data were processed using the Boltzmann equation to generate sigmoidal denaturation curves, and average Tm/ΔTm values were calculated as previously described using GraphPad Prism software package.

pig kidney FBPase M248D = biological target: T2, pig kidney FBPase M248D (Sus scrofa, UniProt P00636, M249D); assay: Differential scanning fluorimetry, M248D mutant; conditions: enzyme M248D
T2 construct: His6 (C); made in house; host or cells: Escherichia coli BL21 (DE3)
T2 sequence (P00636 1-338 M249D): T1 sequence (P00636 1-338) with M249D
Description: as §1

pig kidney FBPase Y113A = biological target: T3, pig kidney FBPase Y113A (Sus scrofa, UniProt P00636, Y114A); assay: Differential scanning fluorimetry, Y113A mutant; conditions: enzyme Y113A
T3 construct: His6 (C); made in house; host or cells: Escherichia coli BL21 (DE3)
T3 sequence (P00636 1-338 Y114A): T1 sequence (P00636 1-338) with Y114A
Description: as §1

pig kidney FBPase L73A = biological target: T4, pig kidney FBPase L73A (Sus scrofa, UniProt P00636, L74A); assay: Differential scanning fluorimetry, L73A mutant; conditions: enzyme L73A
T4 construct: His6 (C); made in house; host or cells: Escherichia coli BL21 (DE3)
T4 sequence (P00636 1-338 L74A): T1 sequence (P00636 1-338) with L74A
Description: as §1

pig kidney FBPase K112A = biological target: T5, pig kidney FBPase K112A (Sus scrofa, UniProt P00636, K113A); assay: Differential scanning fluorimetry, K112A mutant; conditions: enzyme K112A
T5 construct: His6 (C); made in house; host or cells: Escherichia coli BL21 (DE3)
T5 sequence (P00636 1-338 K113A): T1 sequence (P00636 1-338) with K113A
Description: as §1

Compound	melting point of enzyme with AMP (100 µM) (pig kidney FBPase WT; AMP 100 µM)	melting point of enzyme with AMP (100 µM) (pig kidney FBPase M248D; AMP 100 µM)	reduction in melting temperature, presence of AMP vs absence of ligand (pig kidney FBPase Y113A)	melting point of enzyme with AMP (100 µM) (pig kidney FBPase Y113A; AMP 100 µM)	melting point of enzyme with AMP (100 µM) (pig kidney FBPase L73A; AMP 100 µM)	reduction in melting temperature, presence of AMP vs absence of ligand (pig kidney FBPase K112A)	melting point of enzyme with AMP (100 µM) (pig kidney FBPase K112A; AMP 100 µM)	melting point of enzyme with Mg^2+ ([…]) (pig kidney FBPase WT; Mg^2+ […])	melting point of enzyme with Mg^2+ ([…]) (pig kidney FBPase M248D; Mg^2+ […])	melting point of enzyme with Mg^2+ ([…]) (pig kidney FBPase Y113A; Mg^2+ […])	melting point of enzyme with Mg^2+ ([…]) (pig kidney FBPase L73A; Mg^2+ […])	melting point of enzyme with Mg^2+ ([…]) (pig kidney FBPase K112A; Mg^2+ […])
Nc1ncnc2c1ncn2[C@@H]1O[C@H](COP(=O)(O)O)[C@@H](O)[C@H]1O [AMP]	59.0 (± 1.75) °C	59.0 (± 2.50) °C	5–9 °	45.0 (± 1.25) °C	56.0 (± 3.00) °C	5–9 °	42.0 (± 2.50) °C	–	–	–	–	–
[Mg+2] [Mg^2+, magnesium]	–	–	–	–	–	–	–	50.0 (± 1.25) °C	65.0 (± 1.75) °C	52.0 (± 1.50) °C	56.5 (±2.25) °C	51.0 (± 2.50) °C

— publication PMC6386767, “Characterization of recombinant fructose-1,6-bisphosphatase gene mutations: evidence of inhibition/activation of FBPase protein by gene mutation” (Bioscience Reports, 2019)
